{"source": "patent US6008233A", "about": "“(1S,2S)-1-(4-hydroxyphenyl)-2-(4- hydroxy-4-phenylipiperidin-1-yl)-1-propanolmethanesulfonate trihydrate” (Pfizer Inc, priority 1998, dated 1999)", "key": {"[1]": {"assay": "Equilibration of the anhydrous mesylate in an 81% RH environment", "type": "physicochemical", "conditions": "equilibrated in an 81% RH environment", "description": "FIG. 1 depicts the X-ray powder diffraction spectrum of the mesylate trihydrate (taken on a Siemens D 5000 diffractometer after equilibration of the anhydrous mesylate at 81% relative humidity (\"RH\")), expressed as intensity (CPS) versus diffraction angle (two-theta degrees)."}, "[2]": {"assay": "Hygroscopicity at 0%, 52% and 98% controlled relative humidities and under ambient laboratory conditions", "type": "physicochemical"}, "[3]": {"assay": "Hygroscopicity at ambient conditions of the anhydrous mesylate salt (Table 3)", "type": "physicochemical", "description": "HYGROSCOPICITY AT AMBIENT CONDITIONS OF THE ANHYDROUS MESYLATE SALT"}, "[4]": {"tested_on": "hippocampal cells", "assay": "Neuroprotective activity: glutamate toxicity in cultured fetal rat hippocampal cells (LDH release)", "type": "cell-based", "conditions": "in words", "protocol": "The preferred procedure for evaluating the neuroprotective activity of this compound is that described by Ismail A. Shalaby, et al., in J. Pharm. and Experimental Therapeutics, 260, 925 (1992). This article is incorporated herein by reference in its entirety and described below.\nCell culture. […]\nGlutamate toxicity. The cultures are assessed for glutamate toxicity 2 to 3 weeks from initial plating. […]\nCell viability is routinely assessed 20 to 24 hours after the excitotoxin exposure by measuring the activity of the cytosolic enzyme LDH. LDH activity is determined from the culture medium of each of the 96 wells of the microtiter plates. […] The 340 nm absorbance of the total reaction mixture for each of the 96 wells is monitored every 5 sec for 2 min by an automated spectrophotometric microtiter plate reader (Molecular Devices; Menlo Park, Calif.). The rate of absorbance is automatically calculated using an IBM SOFTmax program (version 1.01; Molecular Devices) and is used as the index of LDH activity.\nMorphological assessment of neuronal viability is determined using phrase contrast microscopy. […] Quantitatively, both culture platings are equally sensitive to glutamate toxicity, and display 2- to 3-fold increases in LDH activity 24 hours after exposure to 0.1 to 1.0 mM glutamate. […]"}, "[5]": {"tested_on": "NMDA (N-methyl-D-aspartic acid) receptor", "assay": "NMDA receptor antagonist activity", "conditions": "in words"}, "[6]": {"assay": "Bulk stability samples stored in polyethylene bags", "type": "physicochemical", "conditions": "40° C./30% RH, 9 months", "protocol": "Weight loss was also observed in bulk stability samples stored in polyethylene bags at 40° C./30% RH (>10% of weight was lost in 9 months)."}, "[7]": {"assay": "Stability of crystalline form and shelf life compared to the anhydrous mesylate", "type": "physicochemical", "conditions": "compared with the corresponding anhydrous salt"}}, "note": "Where a name gives a salt, the structure may show the parent alone."}
{"smiles": "CC(C(O)c1ccc(O)cc1)N1CCC(O)(c2ccccc2)CC1", "note": "(centres unmarked) [anhydrous mesylate]", "values": [{"measurement": "conversion to the mesylate salt trihydrate", "setting": "[1]", "value": "will convert to the mesylate salt trihydrate"}, {"measurement": "re-equilibration to the hydrated form", "setting": "[2]; anhydrous form exposed to higher humidities", "value": "quickly equilibrated to the hydrated form"}, {"measurement": "% Difference from Initial", "setting": "[3]; 1 hours since initial", "value": 0.06, "unit": "%"}, {"measurement": "% Difference from Prev. Weighing", "setting": "[3]; 1 hours since initial", "value": 0.06, "unit": "%"}, {"measurement": "Weight of Sample", "setting": "[3]; 1 hours since initial", "value": 0.4977, "unit": "g"}, {"measurement": "% Difference from Initial", "setting": "[3]; 3.5 hours since initial", "value": 0.06, "unit": "%"}, {"measurement": "% Difference from Prev. Weighing", "setting": "[3]; 3.5 hours since initial", "value": 0.00, "unit": "%"}, {"measurement": "Weight of Sample", "setting": "[3]; 3.5 hours since initial", "value": 0.4977, "unit": "g"}, {"measurement": "% Difference from Initial", "setting": "[3]; 22 hours since initial", "value": 0.32, "unit": "%"}, {"measurement": "% Difference from Prev. Weighing", "setting": "[3]; 22 hours since initial", "value": 0.26, "unit": "%"}, {"measurement": "Weight of Sample", "setting": "[3]; 22 hours since initial", "value": 0.4990, "unit": "g"}, {"measurement": "% Difference from Initial", "setting": "[3]; 30.5 hours since initial", "value": 0.56, "unit": "%"}, {"measurement": "% Difference from Prev. Weighing", "setting": "[3]; 30.5 hours since initial", "value": 0.24, "unit": "%"}, {"measurement": "Weight of Sample", "setting": "[3]; 30.5 hours since initial", "value": 0.5002, "unit": "g"}, {"measurement": "% Difference from Initial", "setting": "[3]; 45.5 hours since initial", "value": 1.93, "unit": "%"}, {"measurement": "% Difference from Prev. Weighing", "setting": "[3]; 45.5 hours since initial", "value": 1.36, "unit": "%"}, {"measurement": "Weight of Sample", "setting": "[3]; 45.5 hours since initial", "value": 0.5070, "unit": "g"}, {"measurement": "% Difference from Initial", "setting": "[3]; 98 hours since initial", "value": 2.57, "unit": "%"}, {"measurement": "% Difference from Prev. Weighing", "setting": "[3]; 98 hours since initial", "value": 0.63, "unit": "%"}, {"measurement": "Weight of Sample", "setting": "[3]; 98 hours since initial", "value": 0.5102, "unit": "g"}, {"measurement": "% Difference from Initial", "setting": "[3]; 170 hours since initial", "value": 3.94, "unit": "%"}, {"measurement": "% Difference from Prev. Weighing", "setting": "[3]; 170 hours since initial", "value": 1.33, "unit": "%"}, {"measurement": "Weight of Sample", "setting": "[3]; 170 hours since initial", "value": 0.5170, "unit": "g"}, {"measurement": "% Difference from Initial", "setting": "[3]; 194 hours since initial", "value": 3.94, "unit": "%"}, {"measurement": "% Difference from Prev. Weighing", "setting": "[3]; 194 hours since initial", "value": 0.00, "unit": "%"}, {"measurement": "Weight of Sample", "setting": "[3]; 194 hours since initial", "value": 0.5170, "unit": "g"}, {"measurement": "% Difference from Initial", "setting": "[3]; 215 hours since initial", "value": 3.96, "unit": "%"}, {"measurement": "% Difference from Prev. Weighing", "setting": "[3]; 215 hours since initial", "value": 0.02, "unit": "%"}, {"measurement": "Weight of Sample", "setting": "[3]; 215 hours since initial", "value": 0.5171, "unit": "g"}, {"measurement": "% Difference from Initial", "setting": "[3]; 246 hours since initial", "value": 4.22, "unit": "%"}, {"measurement": "% Difference from Prev. Weighing", "setting": "[3]; 246 hours since initial", "value": 0.25, "unit": "%"}, {"measurement": "Weight of Sample", "setting": "[3]; 246 hours since initial", "value": 0.5184, "unit": "g"}, {"measurement": "% Difference from Initial", "setting": "[3]; 382 hours since initial", "value": 4.60, "unit": "%"}, {"measurement": "% Difference from Prev. Weighing", "setting": "[3]; 382 hours since initial", "value": 0.37, "unit": "%"}, {"measurement": "Weight of Sample", "setting": "[3]; 382 hours since initial", "value": 0.5203, "unit": "g"}, {"measurement": "% Difference from Initial", "setting": "[3]; 408 hours since initial", "value": 4.40, "unit": "%"}, {"measurement": "% Difference from Prev. Weighing", "setting": "[3]; 408 hours since initial", "value": -0.19, "unit": "%"}, {"measurement": "Weight of Sample", "setting": "[3]; 408 hours since initial", "value": 0.5193, "unit": "g"}, {"measurement": "% Difference from Initial", "setting": "[3]; 533 hours since initial", "value": 4.40, "unit": "%"}, {"measurement": "% Difference from Prev. Weighing", "setting": "[3]; 533 hours since initial", "value": 0.00, "unit": "%"}, {"measurement": "Weight of Sample", "setting": "[3]; 533 hours since initial", "value": 0.5193, "unit": "g"}, {"measurement": "Weight of Sample", "setting": "[3]; initial", "value": 0.4974, "unit": "g"}, {"measurement": "weight gain at ambient conditions", "setting": "[3]; summary in words", "value": "substantial weight gain"}]}
{"smiles": "C[C@@H]([C@@H](O)c1ccc(O)cc1)N1CCC(O)(c2ccccc2)CC1", "note": "[free base, (1S,2S)-1-(4-hydroxyphenyl)-2-(4-hydroxy-4-phenylpiperidin-1-yl)-1-propanol]", "values": [{"measurement": "neuroprotective activity", "setting": "[4]", "value": "possesses selective neuroprotective activity"}, {"measurement": "activity as NMDA receptor antagonist", "setting": "[5]", "value": "exhibit activity as NMDA (N-methyl-D-aspartic acid) receptor antagonists"}]}
{"smiles": "CC(C(O)c1ccc(O)cc1)N1CCC(O)(c2ccccc2)CC1", "note": "[mesylate salt trihydrate, (1S,2S)-1-(4-hydroxyphenyl)-2-(4-hydroxy-4-phenylpiperidin-1-yl)-1-propanol methanesulfonate trihydrate]", "values": [{"measurement": "neuroprotective activity", "setting": "[4]", "value": "possesses selective neuroprotective activity"}, {"measurement": "weight lost", "setting": "[6]", "value": "> 10", "unit": "%"}, {"measurement": "activity as NMDA receptor antagonist", "setting": "[5]", "value": "exhibit activity as NMDA (N-methyl-D-aspartic acid) receptor antagonists"}, {"measurement": "loss of waters of hydration", "setting": "[2]; 0% RH", "value": "Loss of waters of hydration is observed"}, {"measurement": "weight change", "setting": "[2]; 52% RH", "value": "No weight change"}, {"measurement": "weight change", "setting": "[2]; 98% RH", "value": "No weight change"}, {"measurement": "weight change", "setting": "[2]; ambient laboratory conditions (24-27° C., 31-64% RH's)", "value": "No weight change"}, {"measurement": "reversibility of weight loss observed at 0% RH", "setting": "[2]; exposure to higher humidities after 0% RH", "value": "reversible"}, {"measurement": "breakdown of the crystal structure", "setting": "[7]", "value": "less subject to breakdown of the crystal structure"}, {"measurement": "shelf life", "setting": "[7]", "value": "substantially longer shelf life"}, {"measurement": "stability of crystalline form", "setting": "[7]", "value": "more stable crystalline form than the corresponding anhydrous salt"}]}
